Experimental data: patent US7557099B2, “Pyrrolobenzodiazepines as key intermediates in the synthesis of dimeric cytotoxic pyrrolobenzodiazepines” (Spirogen Limited, priority 2004, dated 2009)
Like-named read-outs stand apart in the source and are kept apart here.

Experiments:
[1] = test system: approximately 60 human tumour cell lines; test: NCI 60 cell screen, SRB assay; assay type: cell-based; conditions: 48 hour continuous exposure
Experimental: The National Cancer Institute (NCI), Bethesda, Md., USA has available an in vitro cytotoxicity screen which consists of approximately 60 human tumour cell lines against which compounds are tested at a minimum of five concentrations each differing 10-fold. A 48 hour continuous exposure protocol is used, where cell viability or growth is estimated with an SRB protein assay.
The test compounds were evaluated against approximately 60 human tumour cell lines. The NCI screening procedures were described in detail by Monks and co-workers (Monks, A et al., Journal of the National Cancer Institute, 1991, 83, 757). Briefly, cell suspensions were diluted according to the particular cell type and the expected target cell density (5000-40,000 cells per well based on cell growth characteristics), and added by pipette (100 μL) into 96-well microtitre plates. The cells were allowed a preincubation period of 24 hours at 37° C. for stabilisation. Dilutions at twice the intended test concentration were added at time zero in 100 μL aliquots to the wells. The test compounds were evaluated at five 10-fold dilutions (10^−4, 10^−5, 10^−6, 10^−7 and 10^−[…]). The test compounds were incubated for 48 hours in 5% CO2 atmosphere and 100% humidity. The cells were then assayed using the sulphorhodamine B assay. A plate reader was used to read the optical densities and a microcomputer processed the readings into GI50 values (in Moles), which is the dosage required to limit cell growth to 50%.

[2] = test system: K562 human chronic myeloid leukaemia cells; test: In vitro cytotoxicity, K562 cells, MTT assay; assay type: cell-based
Experimental: K562 human chronic myeloid leukaemia cells were maintained in RPM1 1640 medium supplemented with 10% fetal calf serum and 2 mM glutamine at 37° C. in a humidified atmosphere containing 5% CO2 and were incubated with a specified dose of drug for 1 hour or 96 hours at 37° C. in the dark. The incubation was terminated by centrifugation (5 min, 300 g) and the cells were washed once with drug-free medium. Following the appropriate drug treatment, the cells were transferred to 96-well microtiter plates (10^4 cells per well, 8 wells per sample). Plates were then kept in the dark at 37° C. in a humidified atmosphere containing 5% CO2. The assay is based on the ability of viable cells to reduce a yellow soluble tetrazolium salt, 3-(4,5-dimethylthiazol-2-yl)-2,5-diphenyl-2H-tetrazolium bromide (MTT, Aldrich-Sigma), to an insoluble purple formazan precipitate. Following incubation of the plates for 4 days (to allow control cells to increase in number by approximately 10 fold), 20 μL of MTT solution (5 mg/mL in phosphate-buffered saline) was added to each well and the plates further incubated for 5 hours. The plates were then centrifuged for 5 minutes at 300 g and the bulk of the medium pipetted from the cell pellet leaving 10-20 μL per well. DMSO (200 μL) was added to each well and the samples agitated to ensure complete mixing. The optical density was then read at a wavelength of 550 nm on a Titertek Multiscan ELISA plate reader, and a dose-response curve was constructed. For each curve, an IC50 value was read as the dose required to reduce the final optical density to 50% of the control value.

linear pBR322 DNA = test: DNA cross-linking, electrophoretic assay (XL50); assay type: biochemical; conditions: concentration giving 50% cross-linked plasmid DNA; 2 hours, 37° C., pH 7.2
Experimental: The extent of DNA cross-linking induced by each PBD dimer was determined using the electrophoretic assay method of Hartley, et al. (Hartley, J. A., Berardini, M. D., and Souhami, R. L. (1991) Anal. Biochem. 193, 131-134) based on the principle that, following complete denaturation of linear pBR322 DNA (˜4,300 bp) to the single-stranded (SS) form, an interstrand cross-link results in renaturation to double-stranded (DS) in a neutral gel.
Closed-circular DNA was linearized with HindIII, then dephosphorylated and finally 5′-singly end-labelled using [γ^32P]-ATP and polynucleotide kinase. Reactions containing 30-40 ng of DNA and the test compound were carried out in aqueous TEOA (25 mM triethanolamine, 1 mM EDTA, pH 7.2) buffer at 37° C. in a final volume of 50 μl for 2 hours. Reactions were terminated by addition of an equal volume of stop solution (0.6 M NaOAc, 20 mM EDTA, 100 μg/ml tRNA) followed by precipitation with ethanol. Following centrifugation, the supernatant was discarded and the pellet dried by lyophilization. Samples were re-suspended in 10 μl of strand separation buffer (30% DMSO, 1 mM EDTA, 0.04% bromophenol blue and 0.04% xylene cylanol) and denatured by heating to 90° C. for 2.5 min, followed by immersion in an ice/water bath. Control non-denatured samples were re-suspended in 10 μl of non-denaturing buffer solution (0.6% sucrose, 0.04% bromophenol blue in aqueous TAE buffer [40 mM Tris, 20 mM acetic acid, 2 mM EDTA, pH 8.1]) and loaded directly onto the gel for comparison.
Electrophoresis was carried out for 14-16 h at 40 V using a 0.8% submerged agarose gel (20×25×0.5 cm) in TAE buffer. Gels were dried under vacuum for 2 hour at 80° C. onto one layer each of Whatman 3MM and DE8I filter papers using a BioRad 583 gel dryer. Autoradiographs were obtained after exposure of Hyperfilm-MP film (Amersham plc, U.K.) to the dried gel for either 4 hour with a screen (or over night, without a screen, to obtain a sharper image). Film bands were quantitated using a BioRad GS-670 imaging laser densitometer. Percentage cross-linking was calculated by measuring the total DNA in each lane (summed density for the double-stranded [DS] and single-stranded [SS] bands) relative to the amount of cross-linked DNA (density of DS band alone). A dose-response curve was derived by plotting drug concentration against the determined percentage level of cross-linked DNA which was then analysed to determine the concentration of test compound that results in 50% cross-linked plasmid DNA (XL50).

[3] = Homo sapiens, sub-table of 29a-c
[4] = Homo sapiens, 1 hr exposure, read-out: IC50 1 hr exposure
[5] = Homo sapiens, 96 hr exposure, sub-table of 16e-j, read-out: IC50 96 hr exposure
[6] = Homo sapiens, 96 hr exposure, sub-table of 29a-c, read-out: IC50 96 hr exposure

Compound: C=C1CN2C(=O)c3cc(OC)ccc3N=C[C@H]2C1OCCCCCCCCOC1C(=C)CN2C(=O)c3cc(OC)ccc3N=C[C@@H]12 (stereo partly drawn) [Compound 29a, 1,1′-[(Octane-1,8-diyl)dioxy]bis[(11aS)-7-methoxy-2-methylene-1,2,3,11a-tetrahydro-5H-pyrrolo[2,1-c][1,4]benzodiazepine-5-one]]
- GI50 [1, 3]: 13.8 nM

Compound: COc1ccc2c(c1)C(=O)N1CCC(OCCCCCOC3CCN4C(=O)c5cc(OC)ccc5N=C[C@@H]34)[C@@H]1C=N2 (stereo partly drawn) [Compound 16c, 1,1′-[(Pentane-1,5-diyl)dioxy]bis[(11aS)-7-methoxy-1,2,3,11a-tetrahydro-5H-pyrrolo[2,1-c][1,4]benzodiazepine-5-one]]
- IC50 [2, 4]: 500 nM
- GI50 ([1]; Homo sapiens): 15 nM
- EC50 (linear pBR322 DNA): 70 nM

Compound: COc1ccc2c(c1)N=C[C@H]1C(OCCCCCCCOC3CCN4C(=O)c5ccc(OC)cc5N=C[C@@H]34)CCN1C2=O (stereo partly drawn) [Compound 9e, 1,1′-[(Heptane-1,7-diyl)dioxy]bis[(11aS)-8-methoxy-1,2,3,11a-tetrahydro-5H-pyrrolo[2,1-c][1,4]benzodiazepine-5-one]]
- IC50 [2, 4]: > 30000 nM
- GI50 ([1]; Homo sapiens): 2690 nM
- EC50 (linear pBR322 DNA): 20000 nM

Compound: COc1ccc2c(c1)C(=O)N1CCC(OCCCCCCCCCCCCOC3CCN4C(=O)c5cc(OC)ccc5N=C[C@@H]34)[C@@H]1C=N2 (stereo partly drawn) [Compound 16j, 1,1′-[(Dodecane-1,12-diyl)dioxy]bis[(11aS)-7-methoxy-1,2,3,11a-tetrahydro-5H-pyrrolo[2,1-c][1,4]benzodiazepine-5-one]]
- IC50 [2, 5]: 645 nM
- GI50 ([1]; Homo sapiens): 150 nM

Compound: COc1ccc2c(c1)N=C[C@H]1C(OCCCCCCCCCCCOC3CCN4C(=O)c5ccc(OC)cc5N=C[C@@H]34)CCN1C2=O (stereo partly drawn) [Compound 9i, 1,1′-[(Undecane-1,11-diyl)dioxy]bis[(11aS)-8-methoxy-1,2,3,11a-tetrahydro-5H-pyrrolo[2,1-c][1,4]benzodiazepine-5-one]]
- IC50 [2, 4]: 9000 nM
- GI50 ([1]; Homo sapiens): 570 nM
- EC50 (linear pBR322 DNA): 190 nM

Compound: COc1ccc2c(c1)N=C[C@H]1C(OCCCCOC3CCN4C(=O)c5ccc(OC)cc5N=C[C@@H]34)CCN1C2=O (stereo partly drawn) [Compound 9b, 1,1′-[(Butane-1,4-diyl)dioxy]bis[(11aS)-8-methoxy-1,2,3,11a-tetrahydro-5H-pyrrolo[2,1-c][1,4]benzodiazepine-5-one]]
- IC50 [2, 4]: > 30000 nM
- GI50 ([1]; Homo sapiens): 28100 nM

Compound: COc1ccc2c(c1)C(=O)N1CCC(OCCCCOC3CCN4C(=O)c5cc(OC)ccc5N=C[C@@H]34)[C@@H]1C=N2 (stereo partly drawn) [Compound 16b, 1,1′-[(Butane-1,4-diyl)dioxy]bis[(11aS)-7-methoxy-1,2,3,11a-tetrahydro-5H-pyrrolo[2,1-c][1,4]benzodiazepine-5-one]]
- IC50 [2, 4]: 2500 nM
- GI50 ([1]; Homo sapiens): 2510 nM
- EC50 (linear pBR322 DNA): 1000 nM

Compound: COc1ccc2c(c1)C(=O)N1CCC(OCCCCCCOC3CCN4C(=O)c5cc(OC)ccc5N=C[C@@H]34)[C@@H]1C=N2 (stereo partly drawn) [Compound 16d, 1,1′-[(Hexane-1,6-diyl)dioxy]bis[(11aS)-7-methoxy-1,2,3,11a-tetrahydro-5H-pyrrolo[2,1-c][1,4]benzodiazepine-5-one]]
- IC50 [2, 4]: 1000 nM
- GI50 ([1]; Homo sapiens): 310 nM
- EC50 (linear pBR322 DNA): 750 nM

Compound: COc1cc2c(cc1OCCCCCOc1cc3c(cc1OC)N=C[C@@H]1CCCN1C3=O)C(=O)N1CCC[C@H]1C=N2 [Compound 9c, 1,11-[(Pentane-1,5-diyl)dioxy]bis[(11aS)-8-methoxy-1,2,3,11a-tetrahydro-5H-pyrrolo[2,1-c][1,4]benzodiazepine-5-one]]
- IC50 ([2]; 1 hr exposure, read-out: IC50 1 hr exposure): > 30000 nM
- GI50 [1]: 10200 nM

Compound: C=C1CN2C(=O)c3cc(OC)ccc3N=C[C@H]2C1OCCCCCCCCCOC1C(=C)CN2C(=O)c3cc(OC)ccc3N=C[C@@H]12 (stereo partly drawn) [Compound 29b, 1,1′-[(Nonane-1,9-diyl)dioxy]bis[(11aS)-7-methoxy-2-methylene-1,2,3,11a-tetrahydro-5H-pyrrolo[2,1-c][1,4]benzodiazepine-5-one]]
- IC50 [2, 6]: 33.8 nM
- GI50 [1, 3]: 20.9 nM
- EC50 (linear pBR322 DNA): 1500 nM

Compound: COc1ccc2c(c1)N=C[C@H]1C(OCCCCCCCCCCCCOC3CCN4C(=O)c5ccc(OC)cc5N=C[C@@H]34)CCN1C2=O (stereo partly drawn) [Compound 9j, 1,1′-[(Dodecane-1,12-diyl)dioxy]bis[(11aS)-8-methoxy-1,2,3,11a-tetrahydro-5H-pyrrolo[2,1-c][1,4]benzodiazepine-5-one]]
- IC50 [2, 4]: 9120 nM
- GI50 ([1]; Homo sapiens): 210 nM
- EC50 (linear pBR322 DNA): > 100000 nM

Compound: COc1ccc2c(c1)C(=O)N1CCC(OCCCCCCCCCCCOC3CCN4C(=O)c5cc(OC)ccc5N=C[C@@H]34)[C@@H]1C=N2 (stereo partly drawn) [Compound 16i, 1,1′-[(Undecane-1,11-diyl)dioxy]bis[(11aS)-7-methoxy-1,2,3,11a-tetrahydro-5H-pyrrolo[2,1-c][1,4]benzodiazepine-5-one]]
- IC50 [2, 5]: 689 nM
- GI50 ([1]; Homo sapiens): 220 nM

Compound: C=C1CN2C(=O)c3cc(OC)ccc3N=C[C@H]2C1OCCCCCCCCCCOC1C(=C)CN2C(=O)c3cc(OC)ccc3N=C[C@@H]12 (stereo partly drawn) [Compound 29c, 1,1′-[(Decane-1,10-diyl)dioxy]bis[(11aS)-7-methoxy-2-methylene-1,2,3,11a-tetrahydro-5H-pyrrolo[2,1-c][1,4]benzodiazepine-5-one]]
- IC50 [2, 6]: 100 nM
- GI50 [1, 3]: 13.2 nM
- EC50 (linear pBR322 DNA): 3900 nM

Compound: COc1ccc2c(c1)N=C[C@H]1C(OCCCCCCCCCOC3CCN4C(=O)c5ccc(OC)cc5N=C[C@@H]34)CCN1C2=O (stereo partly drawn) [Compound 9g, 1,1′-[(Nonane-1,9-diyl)dioxy]bis[(11aS)-8-methoxy-1,2,3,11a-tetrahydro-5H-pyrrolo[2,1-c][1,4]benzodiazepine-5-one]]
- IC50 [2, 4]: 17300 nM
- GI50 ([1]; Homo sapiens): 570 nM
- EC50 (linear pBR322 DNA): 980 nM

Compound: COc1ccc2c(c1)N=C[C@H]1C(OCCCOC3CCN4C(=O)c5ccc(OC)cc5N=C[C@@H]34)CCN1C2=O (stereo partly drawn) [Compound 9a, 1,1′-[(Propane-1,3-diyl)dioxy]bis[(11aS)-8-methoxy-1,2,3,11a-tetrahydro-5H-pyrrolo[2,1-c][1,4]benzodiazepine-5-one]]
- IC50 [2, 4]: > 30000 nM
- GI50 ([1]; Homo sapiens): 8910 nM
- EC50 (linear pBR322 DNA): > 100000 nM

Compound: COc1ccc2c(c1)N=C[C@H]1C(OCCCCCCOC3CCN4C(=O)c5ccc(OC)cc5N=C[C@@H]34)CCN1C2=O (stereo partly drawn) [Compound 9d, 1,1′-[(Hexane-1,6-diyl)dioxy]bis[(11aS)-8-methoxy-1,2,3,11a-tetrahydro-5H-pyrrolo[2,1-c][1,4]benzodiazepine-5-one]]
- IC50 [2, 4]: > 30000 nM
- GI50 ([1]; Homo sapiens): 4000 nM
